Experimental data: US7838496B2, “Template-fixed peptidomimetics as medicaments against HIV and cancer” (Polyphor AG/Ltd., priority 2003, dated 2010)
*1 amine or outer side, *2 acyl side, *3 side chain or, on linkers, in order; H or OH if unused. Where a SMILES comes first, the peptide text is derived from it. Bridges are numbered along the chain shown (N, C = ends). [ ]: non-standard residue; d: D form. NHCH2(1,3-C6H4)CH2CO = O=C(Cc1cccc(CN[*:1])c1)[*:2]; Phe(4-NH2) = Nc1ccc(C[C@H](N)C(=O)O)cc1; 2Nal = N[C@@H](Cc1ccc2ccccc2c1)C(=O)O; Cit = NC(=O)NCCC[C@H](N)C(=O)O; Gly(N(CH2)3NH2) = NCCCNCC(=O)O; Nlys = NCCCCNCC(=O)O

Key:
[1] = tested on: human red blood cells (hRBC); type: cell-based; conditions: red cells of human, 1 h
Description: The peptides were tested for their hemolytic activity against human red blood cells (hRBC). Fresh hRBC were washed three times with phosphate buffered saline (PBS) by centrifugation for 10 min at 2000×g. Peptides at a concentration of 100 μM were incubated with 20% v/v hRBC for 1 hour at 37-C. The final erythrocyte concentration was approximately 0.9×10^9 cells per mL. A value of 0% resp. 100% cell lysis was determined by incubation of the hRBC in the presence of PBS alone and respectively 0.1% Triton X-100 in H2O. The samples were centrifuged and the supernatant was 20-fold diluted in PBS buffer and the optical density (OD) of the sample at […] was measured. The 100% lyses value (OD540H2O) gave an OD540 of approximately 1.3-1.8. Percent hemolysis was calculated as follows: (OD540peptide/OD540H2O)×100%.

CCRF-CEM cells = CCRF-CEM cells (Homo sapiens, UniProt P61073); conditions: read-out: IC50 (μM) Cell migration assay; CCRF-CEM cells migrating to 1 nM SDF-1, 4 hours
Sequence of CCRF-CEM cells (P61073 whole entry): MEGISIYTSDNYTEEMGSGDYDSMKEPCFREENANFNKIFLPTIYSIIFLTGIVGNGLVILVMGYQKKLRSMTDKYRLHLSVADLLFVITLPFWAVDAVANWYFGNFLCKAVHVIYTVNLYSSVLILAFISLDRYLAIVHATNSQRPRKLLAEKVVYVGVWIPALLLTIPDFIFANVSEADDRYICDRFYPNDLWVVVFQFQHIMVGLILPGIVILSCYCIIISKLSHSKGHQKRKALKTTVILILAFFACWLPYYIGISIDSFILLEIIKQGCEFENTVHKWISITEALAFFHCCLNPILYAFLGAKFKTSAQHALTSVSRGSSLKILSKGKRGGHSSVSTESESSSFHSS
Description: BELA cells and CCRF-CEM cells were maintained in RPMI1640 plus 5% FBS, Pen/Strept and 2 mM L-Glutamine. […] All cell lines were grown at 37° C. at 5% CO2. Cell media, media supplements, PBS-buffer, HEPES, Pen/Strept., L-Glutamine and sera were purchased from Gibco (Pailsey, UK). All fine chemicals came from Merck (D)armstadt, Germany).
Chemotactic Assay (Cell Migration Assay)
The chemotactic response of CCRF-CEM cells to a gradient of stromal cell-derived factor 1 a (SDF-1) was measured using disposable assay plates from Neuroprobe (5 μ pore size) (Gaithersburg, Md.), according to the manufacturer's directions and references therein [especially ref. 8, below]. Briefly, one 175 cm^2 flask was washed once with Dubecco's phosphate buffered saline (DPBS), and trypsinized for 10 minutes or until cells had lifted. The trypsin was neutralized by the addition of fresh medium containing serum and the cells were pelleted, washed once in DPBS, and resuspended at 1-0.5×10^7 cells/ml in RPM!+0.5% bovine serum albumin (BSA). 451 μl of cell suspension were mixed with 5μ of 10-fold concentrated PEM peptide diluted in the same assay medium. 35 μl of this mixture were applied to the top of the assay filter. The cells were allowed to migrate (at 37°) into the bottom chamber of the assay plate containing 1 nM SDF-1. After 4 hours, the filter was removed and MTT was added to the migrated cells to a final concentration of 0.5 mg/ml, and incubated for a further 4 hours. After labeling with MTT, all medium was removed and 100 μl of isopropanol+10 mM HCl were added to the cells. The optical absorbance at 595 nm (ABS595) was read using a Tecan Genios plate reader with Magellan software. The number of cells migrated was determined by comparing ABS595 values against a standard curve generated with a known number of cells in the assay plate and were plotted against SDF-1 concentration to obtain a sigmoidal curve and to determine the IC50 values. The values for IC50 were determined using the Trendline function in Microsoft Excel by fitting a logarithmic curve to the averaged datapoints.

in vitro = type: cell-based
Description: The cytotoxicity of the peptides to HELA cells (Acc57) and COS-7 cells (CRL-1651) was determined using the MTl reduction assay [see ref. 6 and 7, below]. Briefly the method was as follows: HELA cells and COS-7 cells were seeded at 7.0·10^3 and, respectively, 4.5·10^3 cells per well and grown in 96-well microtiter plates for 24 hours at 37° C. at 5% CO2. At this point, time zero (Tz) was determined by MTT reduction (see below). The supernatant of the remaining wells was discarded and fresh medium and the peptides in serial dilutions of 12.5, 25 and 50 μM were pipeted into the wells. Each peptide concentration was assayed in triplicate. Incubation of the cells was continued for 48 hours at 37° C. at 5% CO2. Wells were then washed once with PBS and subsequently 100 μl MTT reagent (0.5 mg/mL in medium RPMI1640 and, respectively, DMEM) was added to the wells. This was incubated at 37° C. for 2 hours and subsequently the medium was aspirated and 100 μl isopropanol was added to each well. The absorbance at 595 nm of the solubilized product was measured (OD595peptide). For each concentration averages were calculated from triplicates. The percentage of growth was calculated as follows: (OD595peptide-OD595Tz-OD595Empty well)/(OD595Tz-OD595Empty well)×100% and was plotted for each peptide concentration.
The LC 50 values (Lethal Concentration, defined as the concentration that kills 50% of the cells) were determined for each peptide by using the trend line function of EXCEL (Microsoft Office 2000) for the concentrations (50, 25, 12.5 and 0 μM), the corresponding growth percentages and the value −50, (=TREND(C50:C0,%50:%0,−50))
(§1) All fine chemicals came from Merck (D)armstadt, Germany).

[2] = tested on: 'CCR5' cells / Hut/4-3 cells co-cultivation; assay: FIGS-Assay (co-cultivated cell cultures, beta-galactosidase/ONPG read-out); type: cell-based; conditions: 48 hours of co-cultivation
Description: The assay was performed according to ref. 5, below. Stock dilutions of the peptides (10 mM) were prepared by dissolving in 10 mM Tris-HCl at room temperature. Stock solutions were kept at +4° C., light protected. Working dilutions were prepared extemporaneously by serial dilution in Phosphate Buffered Saline (PBS) and added in a final volume of 10 μL directly to the cell cultures. After 48 hours of co-cultivation the cultures were rinsed with PBS and then exposed to glutaraldehyde/formaldehyde (0.2%/2%) in PBS for five minutes. For photometric quantification the fixed cultures were subsequently incubated with ortho-nitro-phenyl-galactopyranoside (ONPG) as a O-galactosidase substrate, which was enzymatically converted into the chromophore ortho-nitrophenol (ONP). The read out is directly obtained by measuring optical density of wells at 405 nm in an IEMS 96 well-plate reader.
as §1

CXCR4 = target: T1, CXCR4 (Homo sapiens, UniProt P61073); assay: Ca2+ assay: CXCR4 antagonizing activity of the peptides; type: cell-based; conditions: CXCR4 transfected pre-B cells, Fura-2 fluorescence, 37° C.
T1 construct: expressed in transfected cells
T1 sequence (P61073 whole entry): as above
Description: 2.2. Ca^2+− assay: CXCR4Antagonizing Activity of the Peptides
3-4 Mio CXCR4 transfected pre-B cells [see references 1, 2 and 3, below] per measurement were resuspended in 200 μl MSB (20 mM 4-(2-Hyddroxyethyl)-piperazin-1-ethansulfonic acid (HEPES), 136 mM NaCl, 4.8 mM KCl and 1 mM CaCl2) containing 5 mM D-Glucose and were loaded with 0.75 μl of 1 mM Fura-2-acetoxymethylester for 17 minutes at 37° C. The cells were washed free from Fura-2-AM with a platelet centrifuge and resuspended in 800 R1 MSB containing 5 mM D-Glucose. The peptides to be administered were diluted to a 100 fold end concentration in MSB/0.2% PPL, and 8 pl were injected. [Ca^2+ ]i-dependent fluorescence change in response to single or sequential stimulation with the peptide was recorded with a fluorimeter at an excitation wavelength of 340 nm and an end emission wavelength of 510 nm [see ref. 4, below]. Measurements were done under continuous stirring at 37° C. The signal intension was calibrated with 3 mM4 CaCl2/1 nM lonomycin (maximal fura-2-acetoxymethylester saturation) and […] MnCl2 (minimal Fura-2-acetoxymethylester saturation) and [Ca^2+]i-changes are presented in % fura-2-acetoxymethylester saturation.
MSB: 20 nmM HEPES, 136 mM NaCl, 4.8 mM KCl, 1 mM CaCl2.2H2O, pH 7.4; Osmolarity: 310 mOsm adjusted with NaOH or HCl, adjusted with dH2O or PBS.
MSB plus: 5 mM D-glucose in MSB (50 mg/50 mL).
Fura 2-acetoxymethylester: 1 mM stock solution in dimethylsulfoxide.

SMILES	Hemolysis at 100 μM [1]	IC50 (CCRF-CEM cells)	CC50 (in vitro)	FIGS % inhibition at 200 nM [2]	IC50 (CXCR4)	CC50 at 48 h (in vitro)	FIGS % inhibition, At 300 nM ([2]; At 300 nM)
N=C(N)NCCC[C@H](NC(=O)[C@@H]1CSSC[C@H](NC(=O)[C@H](Cc2ccc3ccccc3c2)NC(=O)[C@H](CCCNC(=N)N)NC(=O)[C@@H](N)CCCNC(=N)N)C(=O)N[C@@H](Cc2ccc(O)cc2)C(=O)N[C@@H](CCCNC(N)=O)C(=O)N[C@@H](CCCCN)C(=O)N2CCC[C@@H]2C(=O)N2CCC[C@H]2C(=O)N[C@@H](Cc2ccc(O)cc2)C(=O)N[C@@H](CCCNC(=N)N)C(=O)N[C@@H](CCCNC(N)=O)C(=O)N1)C(N)=O [Example 7] (H-RR[2Nal]CY[Cit]K[dP]PYR[Cit]CR-NH2; disulfide 4-13; N-terminus assumed)	0.3%	0.55 µM	56 µM				
CC(=O)N[C@@H](CCCNC(=N)N)C(=O)N[C@@H](CCCNC(=N)N)C(=O)N[C@@H](Cc1ccc2ccccc2c1)C(=O)N[C@H]1CSSC[C@@H](C(=O)N[C@@H](CCCNC(=N)N)C(N)=O)NC(=O)[C@H](CCCNC(N)=O)NC(=O)[C@H](CCCNC(=N)N)NC(=O)[C@H](Cc2ccc(O)cc2)NC(=O)[C@@H]2CCCN2C(=O)[C@H]2CCCN2C(=O)[C@H](CCCCN)NC(=O)[C@H](CCCNC(N)=O)NC(=O)[C@H](Cc2ccc(O)cc2)NC1=O [Example 8] (Ac-RR[2Nal]CY[Cit]K[dP]PYR[Cit]CR-NH2; disulfide 4-13)	0.1%	5 µM		90.6%	13.9 nM	226 µM	
N=C(N)NCCC[C@@H](N)C(=O)N[C@@H](CCCNC(=N)N)C(=O)N[C@@H](Cc1ccc2ccccc2c1)C(=O)N[C@H]1CSSC[C@@H](C(=O)N[C@@H](CCCNC(=N)N)C(N)=O)NC(=O)[C@H](CCCNC(N)=O)NC(=O)[C@H](CCCNC(=N)N)NC(=O)[C@H](Cc2ccc(O)cc2)NC(=O)[C@@H]2CCCN2C(=O)[C@H]2CCCN2C(=O)[C@H](CCCCN)NC(=O)[C@H](CCCNC(N)=O)NC(=O)[C@H](Cc2ccc(O)cc2)NC1=O [Example 10] (H-[dR]R[2Nal]CY[Cit]K[dP]PYR[Cit]CR-NH2; disulfide 4-13)	0.6%	0.55 µM		82.0%	21.5 nM	118 µM	
N=C(N)NCCC[C@H](NC(=O)[C@@H]1CSSC[C@H](NC(=O)[C@H](Cc2ccc(N)cc2)NC(=O)[C@H](CCCNC(=N)N)NC(=O)[C@@H](N)CCCNC(=N)N)C(=O)N[C@@H](Cc2ccc(O)cc2)C(=O)N[C@@H](CCCNC(N)=O)C(=O)N[C@@H](CCCCN)C(=O)N2CCC[C@@H]2C(=O)N2CCC[C@H]2C(=O)N[C@@H](Cc2ccc(O)cc2)C(=O)N[C@@H](CCCNC(=N)N)C(=O)N[C@@H](CCCNC(N)=O)C(=O)N1)C(N)=O [Example 12] (H-RR[Phe(4-NH2)]CY[Cit]K[dP]PYR[Cit]CR-NH2; disulfide 4-13)	0.1%	5 µM		71.3%	13.9 nM	226 µM	
N=C(N)NCCC[C@H](NC(=O)[C@@H]1CSSC[C@H](NC(=O)[C@H](Cc2ccc3ccccc3c2)NC(=O)[C@H](CCCNC(=N)N)NC(=O)CNCCCN)C(=O)N[C@@H](Cc2ccc(O)cc2)C(=O)N[C@@H](CCCNC(N)=O)C(=O)N[C@@H](CCCCN)C(=O)N2CCC[C@@H]2C(=O)N2CCC[C@H]2C(=O)N[C@@H](Cc2ccc(O)cc2)C(=O)N[C@@H](CCCNC(=N)N)C(=O)N[C@@H](CCCNC(N)=O)C(=O)N1)C(N)=O [Example 15] (H-[Gly(N(CH2)3NH2)]R[2Nal]CY[Cit]K[dP]PYR[Cit]CR-NH2; disulfide 4-13)		0.57 µM					
N=C(N)NCCC[C@H](NC(=O)[C@@H]1CSSC[C@H](NC(=O)[C@H](Cc2ccc3ccccc3c2)NC(=O)[C@H](CCCNC(=N)N)NC(=O)CNCCCCN)C(=O)N[C@@H](Cc2ccc(O)cc2)C(=O)N[C@@H](CCCNC(N)=O)C(=O)N[C@@H](CCCCN)C(=O)N2CCC[C@@H]2C(=O)N2CCC[C@H]2C(=O)N[C@@H](Cc2ccc(O)cc2)C(=O)N[C@@H](CCCNC(=N)N)C(=O)N[C@@H](CCCNC(N)=O)C(=O)N1)C(N)=O [Example 16] (H-[Nlys]R[2Nal]CY[Cit]K[dP]PYR[Cit]CR-NH2; disulfide 4-13)		1.04 µM					
N=C(N)NCCC[C@H](NC(=O)[C@@H]1CSSC[C@H](NC(=O)[C@H](Cc2ccc3ccccc3c2)NC(=O)[C@H](CCCNC(=N)N)NC(=O)[C@@H](N)CCCNC(=N)N)C(=O)N[C@@H](Cc2ccc(O)cc2)C(=O)N[C@@H](CCCNC(N)=O)C(=O)N[C@@H](CCCCN)C(=O)N2CCC[C@@H]2C(=O)N2CCC[C@H]2C(=O)N[C@@H](Cc2ccc(O)cc2)C(=O)N[C@@H](CCCNC(=N)N)C(=O)N[C@@H](CCCNC(N)=O)C(=O)N1)C(=O)O [Example 20] (H-RR[2Nal]CY[Cit]K[dP]PYR[Cit]CR-OH; disulfide 4-13)	0.2%				15.5 nM	138 µM	At 300 nM: 100%
N=C(N)NCCC[C@H](NC(=O)[C@@H]1CSSC[C@H](NC(=O)[C@H](Cc2ccc3ccccc3c2)NC(=O)[C@H](CCCNC(=N)N)NC(=O)[C@@H](N)CCCNC(=N)N)C(=O)N[C@@H](Cc2ccc(O)cc2)C(=O)N[C@@H](CCCNC(N)=O)C(=O)N[C@@H](CCCCN)C(=O)NCc2cccc(c2)CC(=O)N[C@@H](Cc2ccc(O)cc2)C(=O)N[C@@H](CCCNC(=N)N)C(=O)N[C@@H](CCCNC(N)=O)C(=O)N1)C(N)=O [Example 22] (H-RR[2Nal]CY[Cit]K[NHCH2(1,3-C6H4)CH2CO]YR[Cit]CR-NH2; disulfide 4-12)	0.1%			22.5%	80.3 nM	75 µM	
N=C(N)NCCC[C@H](NC(=O)[C@@H]1CSSC[C@H](NC(=O)[C@H](Cc2ccc3ccccc3c2)NC(=O)[C@H](CCCNC(=N)N)NC(=O)[C@@H](N)CCCNC(=N)N)C(=O)N[C@@H](Cc2ccc(O)cc2)C(=O)N[C@@H](CCCNC(N)=O)C(=O)N[C@@H](CCCCN)C(=O)N2CCC[C@H]2C(=O)N2CCC[C@H]2C(=O)N[C@@H](Cc2ccc(O)cc2)C(=O)N[C@@H](CCCNC(=N)N)C(=O)N[C@@H](CCCNC(N)=O)C(=O)N1)C(N)=O [Example 24] (H-RR[2Nal]CY[Cit]KPPYR[Cit]CR-NH2; disulfide 4-13)	1.1%			17.1%	100 nM	67 µM	
